# Experimental data as given in patent publication US20230404080A1, “A METHOD OF CONTROLLING HERBICIDE RESISTANT WEEDS” (UPL Corporation Limited, priority 2020, published 2023).
# Tested on: Spermacoce verticillate
# Assay: Example 1 trial: herbicidal combinations on Spermacoce verticillate resistant to Group 4 and Group 9 herbicides
# Type: in vivo
# Details: for % weed control at 14 DA-B: 14 days after sequential application B, B applied 15 days after A, scale 0 (no damage) to 100 (complete destruction) vs untreated control, rates per Table 1; for control of S. verticillate weeds (in words): Example 1, sequential application used after glyphosate+triclopyr at 15 DA-A
# Protocol: Trials were carried out for evaluating the effect of herbicidal combinations on target weeds of Spermacoce verticillate resistant to herbicides belonging to Group 4 and Group 9. The evaluation for the damage on undesired weeds caused by the present compositions was carried out using a scale from 0 to 100%, compared to the untreated control plants. Here, 0 means no damage and 100 means complete destruction of weed. In the following experiments, the herbicidal activity for the herbicidal combinations was assessed till 28 days after treatment (application A).
# In this trial, time T was application time, application A was performed first and at 15 days, application B was performed out in treatments with sequential application. The tested herbicides were sourced from the formulations readily available.
Compound,% weed control at 14 DA-B,control of S. verticillate weeds (in words)
"O=C(O)COc1nc(Cl)c(Cl)cc1Cl [Triclopyr (A), Triclopyr]",42.5%,do not efficiently control
"O=C(O)CNCP(=O)(O)O [Glyphosate (A), N-(phosphonomethyl)glycine]",22%,do not efficiently control
